Source: BindingDB's records for patent US9040518 (Glaxosmithkline, 2015)

Molecular target: T1, Ileal sodium/bile acid cotransporter (Homo sapiens, UniProt Q12908)
T1 sequence (Q12908 whole entry): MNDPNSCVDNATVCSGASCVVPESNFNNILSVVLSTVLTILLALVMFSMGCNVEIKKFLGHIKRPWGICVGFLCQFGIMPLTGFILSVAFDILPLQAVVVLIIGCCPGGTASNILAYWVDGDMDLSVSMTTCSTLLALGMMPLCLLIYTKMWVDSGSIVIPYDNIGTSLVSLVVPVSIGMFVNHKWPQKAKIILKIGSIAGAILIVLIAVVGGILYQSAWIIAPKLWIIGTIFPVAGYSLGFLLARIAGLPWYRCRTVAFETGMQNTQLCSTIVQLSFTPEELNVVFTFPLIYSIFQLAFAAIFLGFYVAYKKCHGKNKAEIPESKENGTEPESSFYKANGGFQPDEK
Assay: Inhibition Assay
Conditions: 25 °C
Procedure: On the day of the uptake experiment, 10 mM HEPES was added to Hank's Balanced Salt Solution, and the pH was adjusted to 7.4 with TRIS (HBSSH). The assay buffer was prepared by adding 100 uM [3H]-taurocholate and 10 uM cold taurocholate to room temperature HBSSH. A separate washing buffer was prepared by adding 10 uM cold taurocholate to HBSSH (30 ml per assay plate) and placed on ice. Using 100% DMSO, 8 point, 3-fold dilution curves for each test compound was prepared starting at 200 uM. […] Drug plates were created by adding 3 uL of each concentration to a v-bottom 96-well plate then diluted 60-fold with 177 uL of assay buffer. Plates were removed from the incubator and allowed to cool to ambient temperature.

| Structure (SMILES) | IC50 [µM] |
| --- | --- |
| CCCC[C@]1(CC)CS(=O)(=O)c2cc(CCCC(N)=O)c(OC)cc2[C@@H](c2ccccc2)N1 [US9040518, 24] | 0.073 |
| CCCC[C@]1(CC)CS(=O)(=O)c2cc(CN3CCC[C@H]3C(=O)O)c(OC)cc2[C@@H](c2ccccc2)N1 [US9040518, 63] | 8.99 |
